The record followed here is patent US20080089957A1, “Monocotyledon plant indications extract compositions, method of preparation and pharmaceutical compositions containing them” (priority 2006, published 2008).

Molecules are shown by their SMILES. Counter-ions that a name gives are not always drawn.

One assay concerns the target xanthine oxidase (UniProt P80457). Put plainly: Xanthine oxidase inhibitory activity assay, spectrophotometric at 295 nm. To be noted: Table 3, triplicate; read-out: IC50 ± SEM. Type of assay: biochemical.
Protocol: A reaction mixture containing 200 mM sodium pyrophosphate buffer (pH 7.5), 100 mM xanthine and 0.05 unit xanthine oxidase was prepared. […] All determinations were performed in triplicate and samples were tested further to ascertain the corresponding IC50 values.
For the molecule `COc1nc(N)nc2nc[nH]c12` [6-O-Methylguanine], the concentration for half-maximal inhibition (IC50) (usually the point on the concentration scale where inhibition reaches its midpoint) was greater than 200 µM.
As for `Nc1ncc2[nH]cnc2n1` [2-Aminopurine], the IC50 is greater than 200 µM.
On the same count and under the same terms, in the case of `Cc1cc2nc[nH]c2cc1C` [5,6-Dimethylbenzimidazole] it was greater than 200 µM; in that of `Nc1nc(N)c2[nH]cnc2n1` [2,6-Diaminopurine], greater than 200 µM.
For `Nc1nc(Cl)c2nc[nH]c2n1` [2-Amino-6-chloropurine], the IC50 was greater than 200 µM.
The same measure, in the same setting: in the case of `Cc1ccc2[nH]cnc2c1` [5-Methylbenzimidazole] it was greater than 200 µM.

The same assay, now with this note: unit inferred; read-out: IC50 on xanthine oxidase.
Turning to `Nc1nc2nc[nH]c2c(=S)[nH]1` [6-Thioguanine], the IC50 was 92.42 ± 0.62 µM.
On the same count and under the same terms, in the case of `Nc1ncnc2[nH]ncc12` [4-Aminopyrazolo[3,4-d]pyrimidine] it was 30.26 ± 0.23 µM.
The same measure, in the same setting: for `O=[N+]([O-])c1ccc2[nH]cnc2c1` [5-Nitrobenzimidazole nitrate salt] the value was 86.84 ± 0.51 µM.

The subject of the next assay is phosphodiesterases. Put plainly: Phosphodiesterase inhibitory activity assay, bis(p-nitrophenyl phosphate), 405 nm. Type of assay: biochemical.
Details: not given
How it is done:
The inhibitory effect on phosphodiesterases was measured spectrophotometrically at 405 nm. A reaction mixture containing 300 μl of 100 mM Tris buffer (pH 8.9), 600 μl of 1 mM Bis(p-nitrophenyl phosphate), 100 μl of sample and 100 μl of enzyme was used for analysis. The absorption increments at 405 nm indicated formation of […] at room temperature, and the initial velocity was calculated. The inhibitory activity of phosphodiesterases was assessed as % inhibition=(1−β/α)×100, where α is the change in absorbance per minute without the sample (A blank with enzyme−A blank without enzyme), and β is the change in absorbance per minute with the sample (A test with enzyme−A test without enzyme).
`O=C(O)/C=C(\CC(=O)O)C(=O)O` [trans-aconitic acid]: the “phosphodiesterase inhibitory activity” value is reported as “phosphodiesterase inhibitor”.
